Source: ChEMBL document CHEMBL1201862, “PubChem BioAssay data set” (2004)
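1) Cells in 96-well plates. 2) Compound, 48 h, 5 concentrations. 3) Linear interpolation between surrounding doses. 4) Unreached endpoint = highest concentration. GI50 = concentration required for 50% inhibition of growth.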 The source made the active and inactive calls. Rule as the data show it: active = GI50 up to about 1.1 µM and inactive = higher.

Columns and labels:
Assay in all cases: NCI-60 cell line screen, 48 h
IGROV-1 = test system: IGROV-1
OVCAR-3 = test system: OVCAR-3
HOP-92 = test system: HOP-92
UACC-62 = test system: UACC-62
HOP-62 = test system: HOP-62
CAKI-1 = test system: CAKI-1
U-251 = test system: U-251
MDA-N = test system: MDA-N
Hs-578T = test system: Hs-578T
UO-31 = test system: UO-31
COLO 205 = test system: COLO 205
MOLT-4 = test system: MOLT-4
NCI-H23 = test system: NCI-H23
UACC-257 = test system: UACC-257
KM12 = test system: KM12
PC-3 = test system: PC-3
DU-145 = test system: DU-145
OVCAR-8 = test system: OVCAR-8
MCF7 = test system: MCF7
RPMI-8226 = test system: RPMI-8226
OVCAR-4 = test system: OVCAR-4
HCT-15 = test system: HCT-15
NCI/ADR-RES = test system: NCI/ADR-RES
786-0 = test system: 786-0
K562 = test system: K562
BT-549 = test system: BT-549
NCI-H226 = test system: NCI-H226
EKVX = test system: EKVX
SN12C = test system: SN12C
TK-10 = test system: TK-10
SW-620 = test system: SW-620
SK-OV-3 = test system: SK-OV-3
SK-MEL-5 = test system: SK-MEL-5
SF-268 = test system: SF-268
RXF 393 = test system: RXF 393
T47D = test system: T47D
HCC 2998 = test system: HCC 2998
A498 = test system: A498
ACHN = test system: ACHN
A549 = test system: A549
SF-539 = test system: SF-539
NCI-H460 = test system: NCI-H460
NCI-H522 = test system: NCI-H522
OVCAR-5 = test system: OVCAR-5
MDA-MB-435 = test system: MDA-MB-435
SF-295 = test system: SF-295
LOX IMVI = test system: LOX IMVI
HT-29 = test system: HT-29
SNB-75 = test system: SNB-75
SK-MEL-2 = test system: SK-MEL-2
CCRF-CEM = test system: CCRF-CEM
Malme-3M = test system: Malme-3M
SK-MEL-28 = test system: SK-MEL-28
HCT-116 = test system: HCT-116
MDA-MB-231 = test system: MDA-MB-231
SR = test system: SR
HL-60 = test system: HL-60
SNB-19 = test system: SNB-19
M14 = test system: M14

For `C(=N\N=C1NCCN1)/c1ccc2ccccc2c1`, the GI50 (IGROV-1) was 9.95 µM (inactive), the GI50 (OVCAR-3) was 16.1 µM (inactive) and the GI50 (HOP-92) was 0.174 µM (active). The GI50 (UACC-62) was 14.4 µM (inactive), the GI50 (HOP-62) was 16.1 µM (inactive) and the GI50 (CAKI-1) was 9.02 µM (inactive). For the same molecule, the GI50 (U-251) was 13.9 µM (inactive), the GI50 (MDA-N) was 14.1 µM (inactive) and the GI50 (Hs-578T) was 19.5 µM (inactive). For the same molecule, the GI50 (UO-31) was 3.67 µM (inactive), the GI50 (COLO 205) was 6.84 µM (inactive) and the GI50 (MOLT-4) was 10.2 µM (inactive). The GI50 (NCI-H23) was 19.6 µM (inactive), the GI50 (UACC-257) was 13.2 µM (inactive) and the GI50 (KM12) was 14.9 µM (inactive). For the same molecule, the GI50 (PC-3) was 14.3 µM (inactive), the GI50 (DU-145) was 31.2 µM (inactive) and the GI50 (OVCAR-8) was 16.4 µM (inactive). For the same molecule, the GI50 (MCF7) was 15.3 µM (inactive), the GI50 (RPMI-8226) was 12 µM (inactive) and the GI50 (OVCAR-4) was 18.1 µM (inactive). The GI50 (HCT-15) was 18.2 µM, the GI50 (NCI/ADR-RES) was 11.8 µM (inactive) and the GI50 (786-0) was 12.8 µM (inactive). The GI50 (K562) was 11.6 µM (inactive), the GI50 (BT-549) was 5.53 µM (inactive) and the GI50 (NCI-H226) was 21 µM (inactive). For the same molecule, the GI50 (EKVX) was 12.6 µM (inactive), the GI50 (SN12C) was 16.9 µM (inactive) and the GI50 (TK-10) was 12.4 µM (inactive). The GI50 (SW-620) was 16.3 µM (inactive), the GI50 (SK-OV-3) was 10.8 µM (inactive) and the GI50 (SK-MEL-5) was 13.2 µM (inactive). For the same molecule, the GI50 (SF-268) was 17.9 µM (inactive), the GI50 (RXF 393) was 17.7 µM (inactive) and the GI50 (T47D) was 23.1 µM (inactive). For the same molecule, the GI50 (HCC 2998) was 12.7 µM (inactive), the GI50 (A498) was 14 µM (inactive) and the GI50 (ACHN) was 16.5 µM (inactive). The GI50 (A549) was 14.4 µM (inactive), the GI50 (SF-539) was 19 µM (inactive) and the GI50 (NCI-H460) was 14.4 µM (inactive). The GI50 (NCI-H522) was 13.1 µM (inactive), the GI50 (OVCAR-5) was 18.7 µM (inactive) and the GI50 (MDA-MB-435) was 15.6 µM (inactive). The GI50 (SF-295) was 14.9 µM (inactive), the GI50 (LOX IMVI) was 12.7 µM (inactive) and the GI50 (HT-29) was 14.5 µM (inactive). For the same molecule, the GI50 (SNB-75) was 29.5 µM (inactive), the GI50 (SK-MEL-2) was 19.5 µM (inactive) and the GI50 (CCRF-CEM) was 8.59 µM (inactive). For the same molecule, the GI50 (Malme-3M) was 14.2 µM (inactive), the GI50 (SK-MEL-28) was 14.3 µM (inactive) and the GI50 (HCT-116) was 15.4 µM (inactive). The GI50 (MDA-MB-231) was 16.4 µM (inactive), the GI50 (SR) was 12.9 µM (inactive) and the GI50 (HL-60) was 8.67 µM (inactive).
`N#Cc1nc(/C=C/c2ccccc2)oc1N` was tested, and the GI50 (IGROV-1) was > 100 µM (inactive), the GI50 (OVCAR-3) was > 100 µM (inactive) and the GI50 (HOP-92) was > 100 µM (inactive). The GI50 (HOP-62) was > 100 µM (inactive), the GI50 (CAKI-1) was > 100 µM (inactive) and the GI50 (U-251) was > 100 µM (inactive). For the same molecule, the GI50 (MDA-N) was > 100 µM (inactive), the GI50 (Hs-578T) was > 100 µM (inactive) and the GI50 (UO-31) was 7.26 µM (inactive). For the same molecule, the GI50 (COLO 205) was > 100 µM (inactive), the GI50 (MOLT-4) was 13.7 µM (inactive) and the GI50 (NCI-H23) was > 100 µM (inactive). For the same molecule, the GI50 (UACC-257) was > 100 µM (inactive), the GI50 (KM12) was > 100 µM (inactive) and the GI50 (PC-3) was > 100 µM (inactive). For the same molecule, the GI50 (DU-145) was > 100 µM (inactive), the GI50 (OVCAR-8) was > 100 µM (inactive) and the GI50 (MCF7) was > 100 µM (inactive). For the same molecule, the GI50 (RPMI-8226) was 34.5 µM (inactive), the GI50 (OVCAR-4) was 20.7 µM (inactive) and the GI50 (HCT-15) was over 100 µM. The GI50 (NCI/ADR-RES) was > 100 µM (inactive), the GI50 (786-0) was > 100 µM (inactive) and the GI50 (K562) was > 100 µM (inactive). For the same molecule, the GI50 (BT-549) was 13.1 µM (inactive), the GI50 (NCI-H226) was > 100 µM (inactive) and the GI50 (EKVX) was > 100 µM (inactive). The GI50 (SN12C) was > 100 µM (inactive), the GI50 (TK-10) was > 100 µM (inactive) and the GI50 (SW-620) was > 100 µM (inactive). The GI50 (SK-OV-3) was > 100 µM (inactive), the GI50 (SK-MEL-5) was > 100 µM (inactive) and the GI50 (SF-268) was > 100 µM (inactive). The GI50 (RXF 393) was > 100 µM (inactive), the GI50 (T47D) was > 100 µM (inactive) and the GI50 (SNB-19) was > 100 µM (inactive). The GI50 (HCC 2998) was > 100 µM (inactive), the GI50 (A498) was > 100 µM (inactive) and the GI50 (ACHN) was > 100 µM (inactive). For the same molecule, the GI50 (A549) was > 100 µM (inactive), the GI50 (SF-539) was > 100 µM (inactive) and the GI50 (NCI-H460) was > 100 µM (inactive). The GI50 (NCI-H522) was 8.2 µM (inactive), the GI50 (OVCAR-5) was > 100 µM (inactive) and the GI50 (MDA-MB-435) was > 100 µM (inactive). The GI50 (M14) was > 100 µM (inactive), the GI50 (SF-295) was > 100 µM (inactive) and the GI50 (LOX IMVI) was > 100 µM (inactive). For the same molecule, the GI50 (HT-29) was > 100 µM (inactive), the GI50 (SNB-75) was > 100 µM (inactive) and the GI50 (SK-MEL-2) was > 100 µM (inactive). For the same molecule, the GI50 (CCRF-CEM) was > 100 µM (inactive), the GI50 (Malme-3M) was > 100 µM (inactive) and the GI50 (SK-MEL-28) was > 100 µM (inactive). The GI50 (HCT-116) was > 100 µM (inactive), the GI50 (MDA-MB-231) was > 100 µM (inactive) and the GI50 (SR) was 0.252 µM (active). For the same molecule, the GI50 (HL-60) was > 10 µM (inactive).
In the case of `NP(=O)(Oc1c2occc2cc2ccc(=O)oc12)N(CCCl)CCCl` (configuration not stated), the GI50 (IGROV-1) was > 100 µM (inactive), the GI50 (OVCAR-3) was > 100 µM (inactive) and the GI50 (HOP-92) was 49.1 µM (inactive). The GI50 (UACC-62) was > 100 µM (inactive), the GI50 (HOP-62) was > 100 µM (inactive) and the GI50 (CAKI-1) was > 100 µM (inactive). For the same molecule, the GI50 (U-251) was > 100 µM (inactive), the GI50 (MDA-N) was > 100 µM (inactive) and the GI50 (Hs-578T) was > 100 µM (inactive). The GI50 (UO-31) was > 100 µM (inactive), the GI50 (COLO 205) was > 100 µM (inactive) and the GI50 (MOLT-4) was 28.8 µM (inactive). The GI50 (NCI-H23) was > 100 µM (inactive), the GI50 (UACC-257) was > 100 µM (inactive) and the GI50 (KM12) was > 100 µM (inactive). The GI50 (PC-3) was > 100 µM (inactive), the GI50 (DU-145) was > 100 µM (inactive) and the GI50 (OVCAR-8) was 73.6 µM (inactive). The GI50 (MCF7) was 51.1 µM (inactive), the GI50 (RPMI-8226) was 89.7 µM (inactive) and the GI50 (OVCAR-4) was > 100 µM (inactive). The GI50 (HCT-15) was over 100 µM, the GI50 (NCI/ADR-RES) was > 100 µM (inactive) and the GI50 (786-0) was > 100 µM (inactive). The GI50 (K562) was > 100 µM (inactive), the GI50 (BT-549) was > 100 µM (inactive) and the GI50 (NCI-H226) was 74.5 µM (inactive). The GI50 (EKVX) was > 100 µM (inactive), the GI50 (SN12C) was > 100 µM (inactive) and the GI50 (TK-10) was > 100 µM (inactive). The GI50 (SW-620) was > 100 µM (inactive), the GI50 (SK-MEL-5) was 27.9 µM (inactive) and the GI50 (SF-268) was 58.2 µM (inactive). The GI50 (RXF 393) was 0.0611 µM (active), the GI50 (T47D) was 48.5 µM (inactive) and the GI50 (SNB-19) was > 100 µM (inactive). The GI50 (HCC 2998) was > 100 µM (inactive), the GI50 (A498) was > 100 µM (inactive) and the GI50 (ACHN) was 83.2 µM (inactive). The GI50 (A549) was 62.2 µM (inactive), the GI50 (SF-539) was > 100 µM (inactive) and the GI50 (NCI-H460) was 68.1 µM (inactive). The GI50 (NCI-H522) was > 100 µM (inactive), the GI50 (OVCAR-5) was > 100 µM (inactive) and the GI50 (MDA-MB-435) was > 100 µM (inactive). For the same molecule, the GI50 (M14) was > 100 µM (inactive), the GI50 (SF-295) was > 100 µM (inactive) and the GI50 (LOX IMVI) was 37.6 µM (inactive). For the same molecule, the GI50 (HT-29) was > 100 µM (inactive), the GI50 (SK-MEL-2) was > 100 µM (inactive) and the GI50 (CCRF-CEM) was 45.2 µM (inactive). For the same molecule, the GI50 (Malme-3M) was > 100 µM (inactive), the GI50 (SK-MEL-28) was > 100 µM (inactive) and the GI50 (HCT-116) was > 100 µM (inactive). The GI50 (MDA-MB-231) was > 100 µM (inactive), the GI50 (SR) was 38.5 µM (inactive) and the GI50 (HL-60) was 70.1 µM (inactive).
